Data published in patent US10787462B2, “Heterocyclic compound” (TAKEDA PHARMACEUTICAL COMPANY LIMITED, priority 2015, dated 2020).

Target: T1, human RIPK1 (1-375) (Homo sapiens, UniProt Q13546)
T1 construct: human RIPK1 (1-375) gene; GST; made in house; host or cells: Sf-9 insect cells
T1 sequence (Q13546 1-375): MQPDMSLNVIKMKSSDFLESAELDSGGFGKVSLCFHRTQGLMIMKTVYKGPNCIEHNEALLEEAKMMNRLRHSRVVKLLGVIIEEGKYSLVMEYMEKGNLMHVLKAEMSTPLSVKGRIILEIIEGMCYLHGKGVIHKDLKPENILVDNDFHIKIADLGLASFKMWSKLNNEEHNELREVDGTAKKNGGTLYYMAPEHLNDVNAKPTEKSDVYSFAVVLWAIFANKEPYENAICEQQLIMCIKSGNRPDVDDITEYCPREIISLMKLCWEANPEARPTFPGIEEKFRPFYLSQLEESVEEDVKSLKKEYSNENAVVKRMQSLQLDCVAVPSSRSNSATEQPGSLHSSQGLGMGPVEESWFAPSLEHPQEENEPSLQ
Experiment: Human RIPK1 enzyme inhibitory effect (ADP-Glo Kinase Assay)
Format: biochemical
Conditions: well without enzyme = 100% inhibition; for inhibition at 10 µM: read-out: human RIPK1 enzyme inhibitory effect at 10 μM (% inhibition), 10 μM test compound; for human RIPK1 enzyme inhibitory effect at 10 μM (% inhibition): 10 μM test compound
How it was run: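 ADP-Glo luminescence read-out of ADP formed over 120 min at room temperature after adding 0.6 mM ATP solution (stock concentration). Compound and Sf-9-expressed, GST-purified RIPK1 (1-375) were first incubated together for 20 min in HEPES pH 7.5 buffer with MgCl2, Tween-20 and DTT.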

| inhibition at 10 µM | human RIPK1 enzyme inhibitory effect at 10 μM (% inhibition) | Structure (SMILES) |
| --- | --- | --- |
| 100% | – | CN1C(=O)[C@@H](N2CCc3cn(Cc4ccccc4)nc3C2=O)COc2ccc(Br)cc21 [Example 40, (3S)-3-(2-benzyl-7-oxo-2,4,5,7-tetrahydro-6H-pyrazolo[3,4-c]pyridin-6-yl)-7-bromo-5-methyl-2,3-dihydro-1,5-benzoxazepin-4(5H)-one] |
| 101% | – | Cc1c2c(nn1Cc1ccccc1)C(=O)N([C@H]1COc3ccc(C#N)cc3N(C)C1=O)CC2 [Example 85, (3S)-3-(2-benzyl-3-methyl-7-oxo-2,4,5,7-tetrahydro-6H-pyrazolo[3,4-c]pyridin-6-yl)-5-methyl-4-oxo-2,3,4,5-tetrahydro-1,5-benzoxazepine-7-carbonitrile] |
| – | 98% | CN1C(=O)C(N2CCc3c(nn(Cc4ccccc4)c3Cl)C2=O)CCc2cnccc21 (stereo not shown) [Example 99, 3-(2-benzyl-3-chloro-7-oxo-2,4,5,7-tetrahydro-6H-pyrazolo[3,4-c]pyridin-6-yl)-1-methyl-1,3,4,5-tetrahydro-2H-pyrido[4,3-b]azepin-2-one] |
| 98% | – | CN1C(=O)[C@@H](N2CCc3c(nn(Cc4ccccc4)c3OC(F)F)C2=O)COc2cc(C#N)ccc21 [Example 124, (32)-3-(2-benzyl-3-(difluoromethoxy)-7-oxo-2,4,5,7-tetrahydro-6H-pyrazolo[3,4-c]pyridin-6-yl)-5-methyl-4-oxo-2,3,4,5-tetrahydro-1,5-benzoxazepine-8-carbonitrile] |
| 98% | – | CN1C(=O)C(N2CCc3c(nn(Cc4ccccc4F)c3Cl)C2=O)CCc2c1cnn2C (stereo not shown) [Example 129, 6-(3-chloro-2-(2-fluorobenzyl)-7-oxo-2,4,5,7-tetrahydro-6H-pyrazolo[3,4-c]pyridin-6-yl)-1,4-dimethyl-4,6,7,8-tetrahydropyrazolo[4,3-b]azepin-5(1H)-one] |
| 100% | – | Cc1c2c(nn1Cc1ccccc1)C(=O)N([C@H]1COc3ccccc3N(C)C1=O)CC2 [Example 11, (3S)-3-(2-benzyl-3-methyl-7-oxo-2,4,5,7-tetrahydro-6H-pyrazolo[3,4-c]pyridin-6-yl)-5-methyl-2,3-dihydro-1,5-benzoxazepin-4(5H)-one] |
| 92% | – | CN1C(=O)[C@@H](N2CCc3nn(Cc4ccccc4)cc3C2=O)COc2ccccc21 [Example 70, (3S)-3-(2-benzyl-4-oxo-2,4,6,7-tetrahydro-5H-pyrazolo[4,3-c]pyridin-5-yl)-5-methyl-2,3-dihydro-1,5-benzoxazepin-4(5H)-one] |
| 100% | – | CN1C(=O)[C@@H](N2CCc3c(nn(Cc4ccccc4)c3Cl)C2=O)COc2cc(C(=O)O)ccc21 [Example 61, (3S)-3-(2-benzyl-3-chloro-7-oxo-2,4,5,7-tetrahydro-6H-pyrazolo[3,4-c]pyridin-6-yl)-5-methyl-4-oxo-2,3,4,5-tetrahydro-1,5-benzoxazepine-8-carboxylic acid] |
| 100% | – | CN(C)C(=O)c1ccc2c(c1)OC[C@H](N1CCc3c(nn(Cc4ccccc4)c3Cl)C1=O)C(=O)N2C [Example 87, (3S)-3-(2-benzyl-3-chloro-7-oxo-2,4,5,7-tetrahydro-6H-pyrazolo[3,4-c]pyridin-6-yl)-N,N,5-trimethyl-4-oxo-2,3,4,5-tetrahydro-1,5-benzoxazepine-8-carboxamide] |
| 101% | – | CN1C(=O)[C@@H](N2CCc3c(nn(Cc4ccccc4)c3Cl)C2=O)COc2cc(C(=O)NCCOCCOCCOCCOc3ccc4ccccc4c3)ccc21 [Example 148, (3S)-3-(2-benzyl-3-chloro-7-oxo-2,4,5,7-tetrahydro-6H-pyrazolo[3,4-c]pyridin-6-yl)-5-methyl-N-(2-(2-(2-(2-(2-naphthyloxy)ethoxy)ethoxy)ethoxy)ethyl)-4-oxo-2,3,4,5-tetrahydro-1,5-benzoxazepine-8-carboxamide] |
| 67% | – | CN1C(=O)[C@@H](N2CCc3c(nn(Cc4ccccc4)c3C(=O)O)C2=O)COc2ccccc21 [Example 53, 2-benzyl-6-((3S)-5-methyl-4-oxo-2,3,4,5-tetrahydro-1,5-benzoxazepin-3-yl)-7-oxo-4,5,6,7-tetrahydro-2H-pyrazolo[3,4-c]pyridine-3-carboxylic acid] |
| – | 89% | CN1C(=O)C(N2CCc3c(nn(Cc4ccccc4F)c3Cl)C2=O)CCc2c1cnn2C (stereo not shown) [Example 132, 6-(3-chloro-2-(2-fluorobenzyl)-7-oxo-2,4,5,7-tetrahydro-6H-pyrazolo[3,4-c]pyridin-6-yl)-1,4-dimethyl-4,6,7,8-tetrahydropyrazolo[4,3-b]azepin-5(1H)-one] |
| 96% | – | CN1C(=O)[C@@H](N2CCc3cn(CC4COCCO4)nc3C2=O)COc2ccccc21 (stereo partly drawn) [Example 38, (3S)-3-(2-(1,4-dioxan-2-ylmethyl)-7-oxo-2,4,5,7-tetrahydro-6H-pyrazolo[3,4-c]pyridin-6-yl)-5-methyl-2,3-dihydro-1,5-benzoxazepin-4(5H)-one] |
| 97% | – | CN1C(=O)C(N2CCc3c(nn(Cc4ccccc4)c3Cl)C2=O)CCc2ccncc21 (stereo not shown) [Example 101, 3-(2-benzyl-3-chloro-7-oxo-2,4,5,7-tetrahydro-6H-pyrazolo[3,4-c]pyridin-6-yl)-1-methyl-1,3,4,5-tetrahydro-2H-pyrido[3,4-b]azepin-2-one] |
| 100% | – | O=C1Nc2cc(Cl)ccc2OC[C@@H]1N1CCc2c(nn(Cc3ccccc3)c2Cl)C1=O [Example 144, (3S)-3-(2-benzyl-3-chloro-7-oxo-2,4,5,7-tetrahydro-6H-pyrazolo[3,4-c]pyridin-6-yl)-7-chloro-2,3-dihydro-1,5-benzoxazepin-4(5H)-one] |
| 100% | – | CN1C(=O)[C@@H](N2CCc3c(nn(Cc4ccccc4)c3Cl)C2=O)COc2cc(N3CCOCC3)ccc21 [Example 142, (3S)-3-(2-benzyl-3-chloro-7-oxo-2,4,5,7-tetrahydro-6H-pyrazolo[3,4-c]pyridin-6-yl)-5-methyl-8-(morpholin-4-yl)-2,3-dihydro-1,5-benzoxazepin-4(5H)-one] |
| – | 95% | CN1C(=O)C(N2CCc3c(nn(Cc4ccccc4F)c3Cl)C2=O)CCc2cnccc21 (stereo not shown) [Example 106, 3-(3-chloro-2-(2-fluorobenzyl)-7-oxo-2,4,5,7-tetrahydro-6H-pyrazolo[3,4-c]pyridin-6-yl)-1-methyl-1,3,4,5-tetrahydro-2H-pyrido[4,3-b]azepin-2-one] |
| 101% | – | CNC(=O)c1cc2c(cc1F)N(C)C(=O)[C@@H](N1CCc3c(nn(Cc4ccccc4)c3Cl)C1=O)CO2 [Example 122, (3S)-3-(2-benzyl-3-chloro-7-oxo-2,4,5,7-tetrahydro-6H-pyrazolo[3,4-c]pyridin-6-yl)-7-fluoro-N,5-dimethyl-4-oxo-2,3,4,5-tetrahydro-1,5-benzoxazepine-8-carboxamide] |
| 101% | – | CN1C(=O)[C@@H](N2CCc3cn(Cc4ccccc4F)nc3C2=O)COc2ccc(Br)cc21 [Example 138, (3S)-7-bromo-3-(2-(2-fluorobenzyl)-7-oxo-2,4,5,7-tetrahydro-6H-pyrazolo[3,4-c]pyridin-6-yl)-5-methyl-2,3-dihydro-1,5-benzoxazepin-4(5H)-one] |
| 97% | – | CN1C(=O)[C@@H](N2CCc3cn(Cc4ccccn4)nc3C2=O)COc2ccccc21 [Example 32, (3S)-5-methyl-3-(7-oxo-2-(pyridin-2-ylmethyl)-2,4,5,7-tetrahydro-6H-pyrazolo[3,4-c]pyridin-6-yl)-2,3-dihydro-1,5-benzoxazepin-4(5H)-one] |
| – | 69% | CN1C(=O)C(N2CCc3c(nn(Cc4ccccc4)c3Cl)C2=O)CCc2cccnc21 (stereo not shown) [Example 93, 7-(2-benzyl-3-chloro-7-oxo-2,4,5,7-tetrahydro-6H-pyrazolo[3,4-c]pyridin-6-yl)-9-methyl-5,6,7,9-tetrahydro-8H-pyrido[2,3-b]azepin-8-one] |
| – | 93% | CN1C(=O)C(N2CCc3c(nn(Cc4c(F)cccc4F)c3Cl)C2=O)CCc2c1cnn2C (stereo not shown) [Example 134, 6-(3-chloro-2-(2,6-difluorobenzyl)-7-oxo-2,4,5,7-tetrahydro-6H-pyrazolo[3,4-c]pyridin-6-yl)-1,4-dimethyl-4,6,7,8-tetrahydropyrazolo[4,3-b]azepin-5(1H)-one] |
| 101% | – | CN1C(=O)[C@@H](N2CCc3c(nn(Cc4ccccc4)c3Cl)C2=O)COc2ccc(C(N)=O)cc21 [Example 81, (3S)-3-(2-benzyl-3-chloro-7-oxo-2,4,5,7-tetrahydro-6H-pyrazolo[3,4-c]pyridin-6-yl)-5-methyl-4-oxo-2,3,4,5-tetrahydro-1,5-benzoxazepine-7-carboxamide] |
| 88% | – | CN1C(=O)[C@@H](N2CCc3cn(CC4CCOC4)nc3C2=O)COc2ccccc21 (stereo partly drawn) [Example 171, (3S)-5-methyl-3-(7-oxo-2-(tetrahydrofuran-3-ylmethyl)-2,4,5,7-tetrahydro-6H-pyrazolo[3,4-c]pyridin-6-yl)-2,3-dihydro-1,5-benzoxazepin-4(5H)-one] |
| 101% | – | CN1C(=O)[C@@H](N2CCc3c(nn(Cc4ccccc4)c3Cl)C2=O)COc2cc(C(=O)NCC(C)(C)O)ccc21 [Example 62, (3S)-3-(2-benzyl-3-chloro-7-oxo-2,4,5,7-tetrahydro-6H-pyrazolo[3,4-c]pyridin-6-yl)-N-(2-hydroxy-2-methylpropyl)-5-methyl-4-oxo-2,3,4,5-tetrahydro-1,5-benzoxazepine-8-carboxamide] |
